Several values for one entry are separate records, joined by “and”; a condition that tells them apart may be missing. Identical values can stand only once.
Columns and labels:
[1] = tested on: BUBR1 / CyclinA2 in HGADFN003 cells; assay: Western blot of BUBR1 and CyclinA2 in HGADFN003 cells; type: cell-based, human
Procedure: (§1) Western blot was performed as previously described. Cells were lysed in 1× Laemmli sample buffer after washing twice in cold PBS without calcium and magnesium. Protein concentrations were determined using the bicinchoninic acid (BCA) protein assay. Protein lysates were subjected to SDS–PAGE, transferred to 0.45-μm pore size hydrophobic PVDF transfer membrane (Merck Millipore), detected with the appropriate primary antibodies coupled with horseradish peroxidase-conjugated corresponding secondary antibodies, and visualized using enhanced chemiluminescence ECL reagent (GE Healthcare). The Tanon 5500 high-definition low-illumination CCD system (Tanon FLI Capture v.1.02) was used to capture chemiluminescent signals.

[2] = tested on: BUBR1 in NIH-3T3-progerin cells; assay: Western blot of BUBR1 in progerin-expressing NIH-3T3 cells; type: cell-based
Procedure: as §1

BUBR1 promoter = assay: Luciferase assay of BUBR1 promoter in HEK-293T cells; type: cell-based; settings: for Relative luciferase activity of BUBR1 promoter (UPCP/Mock): Fig. 4b, HEK293T, Mock = 1, P=0.684
Procedure: The experiments were performed as described previously. The BUBR1 (–1,200 to +100) promoter or the DNA fragment of BUBR1 mRNA 3′-UTR was inserted into the pGL4.20 vector. Cells were plated in 24-well plates. After 24 h, cells were cotransfected with 200 ng of the indicated firefly luciferase reporter plasmid and 50 ng of Renilla luciferase normalization control plasmid using PEI. At 48 h after transfection, cell lysates were collected to measure luciferase activity using the Dual-Luciferase Reporter Assay System (Promega, catalog no. E1910) according to the manufacturer’s instructions. Luciferase reporter assay was carried out on an TD-20/20 Turner Designs luminometer, data were analyzed and further processed in Microsoft Excel and GraphPad Prism v.7.

BUBR1 mRNA = BUBR1 mRNA stability assay with Actinomycin D; type: cell-based, human; settings: HGADFN003 cells, UPCP together with Act D
Procedure: RNA preparation was performed as described. Total RNA was extracted using Trizol reagent (TaKaRa) following the manufacturer’s instructions. cDNA was generated with M-MLV reverse transcriptase (Promega, catalog no. M170B). Reverse transcription with PCR (RT-PCR) was performed with SYBR Green Real-Time PCR Master Mix (TaKaRa). RT-PCR was carried out on a QuantStudio 3 Real-Time-PCR Instrument (ABI). Data were analyzed and further processed in QuantStuido Design and Analysis Software and GraphPad Prism v.7. Fold change in gene expression over control samples was calculated using the 2^–ΔΔCt method, where β-actin Ct values were used as an internal control. The primer sequences for PCR, synthesized by Comate Bioscience, were as follows: […]

[3] = tested on: lamin B1, p21 and IL-6 in skin of Lmna^G609G/G609G mice; assay: IHC of lamin B1, p21 and IL-6 in skin of Lmna^G609G/G609G mice; type: in vivo, mouse; settings: for p21 positive cells / IL-6 positive cells / LaminB1 positive cells: LmnaG609G/G609G+UPCP; for p21 positive cells: P=0.0003 vs LmnaG609G/G609G-Mock; for IL-6 positive cells: P=0.0012 vs LmnaG609G/G609G-Mock; for LaminB1 positive cells: P=0.0142 vs LmnaG609G/G609G-Mock
Procedure: (§2) For UPCP injection, 14-day-old Lmna^G609G/G609G mice were injected intraperitoneally with either PBS or UPCP (20 mg kg^–1, every other day) and wild-type mice were injected with PBS. All phenotypic analyses were performed after 12 weeks of treatment with UPCP. Bodyweight and lifespan were monitored after UPCP treatment. The survival rate was analyzed by the Kaplan–Meier method. We only included mice that were of sufficient bodyweight at the start of the experiment, typically at least 80% of the average littermate weight of the same sex and genotype. All animals meeting criteria for inclusion were then divided randomly into three groups according to genotype (Lmna^+/+, Lmna^G609G/G609G-Mock and Lmna^G609G/G609G-UPCP).
(§3) For histological analyses, mice of the indicated genotypes were perfused with PBS, then with 4% paraformaldehyde (PFA). Whole organs were incubated in 4% PFA at 4 °C for 16 h. All samples were paraffin embedded and sectioning by Servicebio. Subsequently, the tissues were deparaffinized and rehydrated before hematoxylin-eosin (HE) or Masson staining or immunohistochemistry (IHC). HE staining was performed using an HE Kit (Absin, catalog no. abs9217), and Masson staining was performed using Masson’s Trichrome Stain Kit (Absin, catalog no. abs9347) according to the manufacturer’s instructions. The thickness of the layers or the areas of fibrosis in the tissues were calculated using ImageJ software by a blinded investigator. For IHC, the sections were completed by the Servicebio. The images were acquired by a microscope (Leica DMi8) and analyzed with Leica Application Suite X v.3.6.0.24 (Leica). For BubR1, cytoplasmic staining in cells was scored on the intensity of staining and the proportion of positive cells by a blinded investigator. The intensity of the staining was graded as 0 (negative, no color), 1 (low positive, light yellow), 2 (positive, brown yellow) or 3 (high positive, brown), and the number of positive cells was graded as 0 (<5%), 1 (5–25%), 2 (25–50%), 3 (51–75%) or 4 (>75%). The final score was defined as staining number score multiplied by staining color score. For lamin B1, p21 or IL-6, the proportion of positive cells was used to quantify the expression of protein in tissues by a blinded investigator.

[4] = tested on: heart of Lmna^G609G/G609G mice; assay: Masson staining of heart (fibrosis); type: in vivo, mouse; settings: 13 weeks
Procedure: as §2, with “All phenotypic analyses were performed after 12 weeks of treatment with UPCP.” left out
as §3

[5] = skin, 20 mg kg^–1 i.p. every other day

In the case of “H-YGRKKRRQRRRYNLRSRTVLCGTCGQPADKASASGSGAQSPQNCSIM-OH (cysteines drawn unpaired) [UPCP, unique progerin C-terminal peptide]”, the “BUBR1 expression (FTI-277/UPCP comparison, words)” value ([1]; HGADFN003) is reported as “increasing expression of BUBR1”, the “CyclinA2 expression (FTI-277/UPCP comparison, words)” value ([1]; HGADFN003) is reported as “increasing expression of BUBR1, CyclinA2” and the BUBR1 abundance ([1]; HGADFN003 cells, UPCP 0–10 μM, Western blot) is reported as “upregulated BUBR1”. For the same substance, the BUBR1 abundance [2] was “upregulated BUBR1”, the “Relative luciferase activity of BUBR1 promoter (UPCP/Mock)” value (BUBR1 promoter; replicate 1) was 0.9458 and the “Relative luciferase activity of BUBR1 promoter (UPCP/Mock)” value (BUBR1 promoter; replicate 2) was 1.36. The “Relative luciferase activity of BUBR1 promoter (UPCP/Mock)” value (BUBR1 promoter; replicate 3) was 0.8889, the “luciferase activity of the BUBR1 promoter” value (BUBR1 promoter; HEK-293T cells) was “failed to enhance luciferase activity of the BUBR1 promoter” and the “BUBR1 mRNA level with Act D” value (BUBR1 mRNA) was “mRNA levels of BUBR1 were significantly increased”. For the same substance, the p21 positive cells ([3]; replicate 1) was 0.2237, the IL-6 positive cells ([3]; replicate 1) was 0.4348 and the LaminB1 positive cells ([3]; replicate 1) was 0.5254. The p21 positive cells ([3]; replicate 2) was 0.3636, the IL-6 positive cells ([3]; replicate 2) was 0.5192 and the LaminB1 positive cells ([3]; replicate 2) was 0.7647. The p21 positive cells ([3]; replicate 3) was 0.2043, the IL-6 positive cells ([3]; replicate 3) was 0.5517 and the LaminB1 positive cells ([3]; replicate 3) was 0.3729. It also gave a p21 positive cells ([3]; replicate 4) of 0.2308, an IL-6 positive cells ([3]; replicate 4) of 0.5702 and a LaminB1 positive cells ([3]; replicate 4) of 0.6429. The p21 positive cells ([3]; replicate 5) was 0.3175, the IL-6 positive cells ([3]; replicate 5) was 0.5897 and the LaminB1 positive cells ([3]; replicate 5) was 0.6739. The p21 positive cells ([3]; replicate 6) was 0.1875, the IL-6 positive cells ([3]; replicate 6) was 0.375 and the LaminB1 positive cells ([3]; replicate 6) was 0.598. The “number of lamin B1 positive cells” value [3, 5] was “increase the number of lamin B1 positive cells”, the “p21 and IL-6 expression” value [3, 5] was “reduce p21 and IL-6 expression in the skin” and the “fibrosis, heart” value ([4]; 20 mg kg^–1 i.p. every other day) was “reduced fibrosis of lamina propria in the esophagus and heart”. For the same substance, the “fibrosis area/ total area, heart” value ([4]; 20 mg kg^–1 i.p., replicate 1) was 0.003612 and 0.3612%, the “fibrosis area, heart” value ([4]; 20 mg kg^–1 i.p., replicate 1, total area 1.938) was 0.007 and the “fibrosis area, heart” value ([4]; 20 mg kg^–1 i.p., replicate 2, total area 1.976) was 0.002. For the same substance, the “fibrosis area, heart” value ([4]; 20 mg kg^–1 i.p., replicate 3, total area 2.43) was 0.004.

Source: article PMC10154249, “Unique progerin C-terminal peptide ameliorates Hutchinson–Gilford progeria syndrome phenotype by rescuing BUBR1” (Nature Aging, 2023)
